Common to all, as to assay type: cell-based
Test [1] has as its system IPCs derived from human MSCs. In words: Insulin release by IPCs quantified by human insulin ELISA. Conditions: IBMX 100 μM, low glucose concentration (5 mM), 1 hour incubation in KRB buffer, FIG. 3B, p<0.05. As to the method: Insulin is an endocrine for reducing blood sugar, and normal islet cells are induced by glucose to release insulin. In order to quantify insulin release by IPCs, a human insulin ELISA (Enzyme-Link ImmunoSorbent Assay) is employed herein.
The suspension stage IV cells are rinsed twice in Phosphate Buffered Saline (PBS) and Krebs-Ringer bicarbonate (KRB) buffer (120 mM NaCl, 5 m M KCl, 2.5 m M CaCl2, 1.1 mM MgCl2, 25 mM NaHCO3 , 0.1 BSA) and preincubated for 1 hour with KRB buffer containing 5 mM glucose. The suspension stage IV cells are then incubated for 1 hour in fresh KRB buffer with 5 mM, 10 mM, 15 mM or 25 mM glucose, and the released insulin in the incubation medium is quantified by ELISA. The quantified insulin release results are shown in FIG. 3A, wherein undifferentiated MSCs are served as a control (*p<0.05 as compared with 5 mM; #p<0.05 as compared with 10 mM; student's t test). […] The insulin secreted by IPCs derived from human MSCs in the present invention is up to 1.1 ng/h/2.5×10^5 IPCs, which is even higher than those secreted by IPCs derived from rodent bone marrow stem cells in the prior art (referring to the citations 5-7). […]
A general note: In an ELISA, binding on a coated surface is turned into a signal by an enzyme label.

The subject of test [2] is human MSCs. Description: Relative mRNA expression of insulin and Glut2 by RT-PCR and agarose electrophoresis, normalized by β-actin (FIG. 1). Particulars: end of four-stage culture. An excerpt:
Islet cells are aggregated cells, and the extracellular matrix (ECM) thereof includes fibronectin and laminin. The present invention provides a method for promoting MSCs to differentiate into IPCs by cell pellet suspension culture with additional fibronectin or laminin. The cells of the embodiments and the control groups at the end of the four-stage culture are harvested, and the relative mRNA expression levels of insulin and glucose transporter 2 (Glut2) thereof are detected by reverse-transcription polymerase chain reaction (RT-PCR) and agarose electrophoresis, and are normalized by the expression level of β-actin. In addition, it should be noted that all of the bar graphs shown in FIGS. 1-4 are represented by the measured mean with its standard deviation.

Test [3] relates to human MSCs. In words: Dithizone (DTZ) staining for islet differentiation. Particulars: pellet suspension culture with versus without fibronectin, DTZ staining (not shown). An excerpt:
Islet differentiation is further evaluated by dithizone (DTZ) staining to detect zinc ion, which binds six insulin molecules within the cells. Cells in the control groups I and II are not stained by DTZ; cells in the embodiment II are slightly stained by DTZ, and cells in the embodiment I are greatly stained by DTZ (not shown).

Test [4] has as its system human MSCs. In words: Insulin and Glut2 gene expression in stage IV cells by real-time RT-PCR, normalized by GAPDH (FIGS. 4A, 4B). Particulars: pellet suspension culture; for gene expressions of insulin and Glut2: 5 μg/mL ECM, compared with pellet culture without any ECM. As to the method: In order to further compare the different differentiation effects resulting from different ECMs when stem cells differentiate into IPCs in pellet suspension culture, the present invention performs the tests by adding fibronectin and laminin in combination or separately.
The gene expressions of insulin and Glut2 in stage IV cells of the present embodiments I-IV are analyzed by real-time RT-PCR respectively, and the detected results are further normalized by the expression level of glyceraldehyde-3-phosphate dehydrogenase (GAPDH) to measure the mRNA expression levels.
On the technique in general: In qPCR the cycle at which signal appears reflects the starting amount.

The mark [5] stands for this setting: monolayer culture with 5 μg/mL fibronectin (control group I).
Where [6] appears, read: pellet suspension culture with 5 μg/mL fibronectin (embodiment I).

For `CC(C)Cn1c(=O)n(C)c(=O)c2[nH]cnc21` [IBMX, 3-isobutyl-1-methylxanthine], the insulin release entry in test [1] is “stimulates insulin release”.
For fibronectin, in the test with human MSCs [2] (setting [5]), the Glut2 expression result is reported as “moderately detected” and the “gene expression of insulin” value was “not detected”. In the test with human MSCs [2] (setting [6]), the Glut2 expression entry is listed as “markedly detected” and the “gene expression of insulin” value is “obviously detected”. In addition, the “differentiation of MSCs into IPCs” value with human MSCs [3] is given as “can further enhance the differentiation of MSCs into IPCs”. The “gene expressions of insulin and Glut2” value in the test with human MSCs [4] was “increased gene expressions of insulin and Glut2”.
For the compound laminin, in the test with human MSCs [4], the “gene expression level compared with fibronectin plus laminin” value was “significantly higher than that of the embodiment IV”; the “gene expressions of insulin and Glut2” value was “increased gene expressions of insulin and Glut2”. In addition, the “insulin and Glut2 expressions compared with fibronectin only” value in the test with human MSCs [4] (compared with embodiment I (fibronectin only)) is listed as “higher than the embodiment I”.

The values above are taken from patent publication US20090311782A1, “METHOD FOR PROMOTING DIFFERENTIATION OF STEM CELL INTO INSULIN PRODUCING CELL” (TAIPEI VETERANS GENERAL HOSPITAL, priority 2008, published 2009).
